Laboratory results reported in patent US8232308B2, “Methods for treating a disease in which Rho kinase is involved” (UBE Industries, Ltd., priority 2003, dated 2012).

Legend:
[1] = target: T1, activated ROCK II (Rattus norvegicus, UniProt Q62868); test: Test for Evaluation of Inhibiting Activity to Rho Kinase; assay type: biochemical; details: S6 Kinase Substrate Peptide, [γ-32P]ATP, 30° C. for 15 minutes, Ki=IC50/(1+S/Km)
T1 construct: purchased Upstate Biotechnology 14-338
T1 sequence (Q62868 11-550 limits assumed): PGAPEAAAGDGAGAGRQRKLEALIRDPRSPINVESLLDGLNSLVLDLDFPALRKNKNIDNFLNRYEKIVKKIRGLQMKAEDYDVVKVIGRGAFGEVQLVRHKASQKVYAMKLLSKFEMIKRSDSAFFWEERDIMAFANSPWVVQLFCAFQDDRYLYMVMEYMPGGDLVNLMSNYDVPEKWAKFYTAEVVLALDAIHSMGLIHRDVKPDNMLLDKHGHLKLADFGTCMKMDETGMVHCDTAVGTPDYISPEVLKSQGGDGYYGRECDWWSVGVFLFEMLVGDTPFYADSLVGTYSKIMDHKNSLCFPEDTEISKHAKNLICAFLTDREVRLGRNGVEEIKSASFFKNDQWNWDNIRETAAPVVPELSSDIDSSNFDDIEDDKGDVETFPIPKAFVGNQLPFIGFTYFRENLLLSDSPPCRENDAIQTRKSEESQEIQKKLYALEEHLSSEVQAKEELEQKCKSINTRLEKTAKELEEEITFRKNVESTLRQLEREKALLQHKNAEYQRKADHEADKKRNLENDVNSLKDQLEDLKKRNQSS

## CC(C)(N)c1ccc(-c2ccc3[nH]ncc3c2OCC2CC2)nc1.Cl.Cl.Cl [Compound 5-73, 5-[5-(1-Amino-1-methylethyl)pyridin-2-yl]-4-cyclo-propylmethyloxy-1H-indazole trihydrochloride]
[1]
  Ki: 146 nM
other
  melting point: 270 to 272 °C (dec.)
